26 molecules from US20240182503A1, “MACROCYCLE COMPLEMENT FACTOR B INHIBITORS” (priority 2021, published 2024) can be followed below.

The conditions of data set [1]: rcm bond, DCM.
The target in the next data set is CVF-Bb complex (Homo sapiens (Human), UniProt P00751). As to the kind of experiment: biochemical. The class given is biochemical. To be noted: read-out: IC50. Here is the method:
CVF-Bb complex, prepared from purified cobra venom factor, (3 nM) is incubated with a compound of the disclosure at various concentrations for 10 minutes at room temperature in PBS (pH 7.4) containing 10 mM MgCl2 and 0.05% (w/v) CHAPS. Human Complement C3 substrate is added to a final concentration of 1 μM. After 1 hour incubation at room temperature, the enzyme reaction is stopped by addition of a cocktail of concentrated pan-protease inhibitors. The product of the reaction, C3a, is quantified by means of an enzyme-linked-immunosorbent assay and/or denaturing gel electrophoresis (SDS-PAGE). IC50 values are calculated from percentage of inhibition of CVF-Bb activity as a function of test compound concentration.

Like-named read-outs stand apart in the source and are kept apart here.

In data set [1] (from C=CCCCCOc1cc(Br)ccc1[C@@H]1CC(O)(CC=C)CCN1C(=O)OC(C)(C)C, 13-membered ring, Grubbs I, 2.5 mM, 25.0 °C, 48.0 h), `CC(C)(C)OC(=O)N1CCC2(O)CC=CCCCCOc3cc(Br)ccc3[C@@H]1C2` showed a ring closure, isolated yield of 65.9%. In data set [1] (from C=CCCOc1cc(C(=O)OC)ccc1[C@@H]1C[C@@H](OCC=C)CCN1C(=O)OC(C)(C)C, 12-membered ring, Grubbs I (20 mol%), 2.22 mM, 25.0 °C, 18.0 h), `COC(=O)c1ccc2c(c1)OCCC=CCO[C@H]1CCN(C(=O)OC(C)(C)C)[C@H]2C1` showed a ring closure, isolated yield of 61.9%. Regarding `COC(=O)c1ccc2c(c1)OCCCC=CCO[C@H]1CCN(C(=O)OC(C)(C)C)[C@H]2C1`, the ring closure, isolated yield in data set [1] (from C=CCCCOc1cc(C(=O)OC)ccc1[C@@H]1C[C@@H](OCC=C)CCN1C(=O)OC(C)(C)C, 13-membered ring, Grubbs I (20 mol%), 2.22 mM, 25.0 °C, 18.0 h) is 68.8%. For `COC(=O)c1ccc2c(c1)OCCCCC=CCO[C@H]1CCN(C(=O)OC(C)(C)C)[C@H]2C1`, the ring closure, isolated yield in data set [1] (from C=CCCCCOc1cc(C(=O)OC)ccc1[C@@H]1C[C@@H](OCC=C)CCN1C(=O)OC(C)(C)C, 14-membered ring, Grubbs I (20 mol%), 2.15 mM, 25.0 °C, 18.0 h) amounted to 72.4%; in data set [1] (from C=CCCCCOc1cc(C(=O)OC)ccc1[C@@H]1C[C@@H](OCC=C)CCN1C(=O)OC(C)(C)C, 14-membered ring, Grubbs I (20 mol%), 2.17 mM, 25.0 °C, 18.0 h), 83.2%. The molecule `COC(=O)c1ccc2c3cc(ccc13)OCC=CCO[C@H]1CCN(C(=O)OC(C)(C)C)[C@H]2C1` gave a ring closure, isolated yield in data set [1] (from C=CCOc1ccc2c(C(=O)OC)ccc([C@@H]3C[C@@H](OCC=C)CCN3C(=O)OC(C)(C)C)c2c1, 13-membered ring, Grubbs I, 2.1 mM, 25.0 °C, 18.0 h) of 67.1%. Molecule `COC(=O)c1ccc2c3cc(ccc13)OCCC=CCO[C@H]1CCN(C(=O)OC(C)(C)C)[C@H]2C1` registered a ring closure, isolated yield in data set [1] (from C=CCCOc1ccc2c(C(=O)OC)ccc([C@@H]3C[C@@H](OCC=C)CCN3C(=O)OC(C)(C)C)c2c1, 14-membered ring, Grubbs I, 3.2 mM, 16.0 h) of 33.4%.

Molecule `COC(=O)c1ccc2c3cc(ccc13)OCCCC=CCO[C@@H]1CCN(C(=O)OC(C)(C)C)[C@@H]2C1` gave a ring closure, isolated yield in data set [1] (from C=CCCCOc1ccc2c(C(=O)OC)ccc([C@H]3C[C@H](OCC=C)CCN3C(=O)OC(C)(C)C)c2c1, 15-membered ring, Grubbs I, 1.96 mM, 25.0 °C, 18.0 h) of 74%. As to `COC(=O)c1ccc2c3cc(ccc13)OCCCC=CCO[C@H]1CCN(C(=O)OC(C)(C)C)[C@H]2C1`, the ring closure, isolated yield in data set [1] (from C=CCCCOc1ccc2c(C(=O)OC)ccc([C@@H]3C[C@@H](OCC=C)CCN3C(=O)OC(C)(C)C)c2c1, 15-membered ring, Grubbs I, 1.95 mM, 25.0 °C, 18.0 h) is 75.3%; in data set [1] (from C=CCCCOc1ccc2c(C(=O)OC)ccc([C@@H]3C[C@@H](OCC=C)CCN3C(=O)OC(C)(C)C)c2c1, 15-membered ring, Grubbs I, 2.0 mM, 25.0 °C, 18.0 h) it was 22.7%.

With `COc1cc(C)c2[nH]ccc2c1CN1CC[C@H]2C[C@H]1c1ccc(C(=O)O)cc1/C=C/CCCCCCCO2` [Ex. 64, (1^2S,1^4S,E)-1^1-((5-methoxy-7-methyl-1H-indol-4-yl)methyl)-12-oxa-1(2,4)-piperidina-2(1,2)-benzenacyclododecaphan-3-ene-2^4-carboxylic acid], on CVF-Bb complex, the concentration for half-maximal inhibition (IC50) amounted to 127 nM. The same measure, in the same setting: as for `COc1cc(C)c2[nH]ccc2c1CN1CC[C@H]2C[C@H]1c1ccc(C(=O)NS(C)(=O)=O)cc1CCCCCCCCO2` [Ex. 65, (1^2S,1^4S)-1^1-((5-methoxy-7-methyl-1H-indol-4-yl)methyl)-N-(methylsulfonyl)-11-oxa-1(2,4)-piperidina-2(1,2)-benzenacycloundecaphane-2^4-carboxamide], the figure is 139 nM; as for `COc1cc(C)c2[nH]ccc2c1CN1CC[C@H]2C[C@H]1c1ccc(C(=O)NS(=O)(=O)C(C)C)cc1OCCCCCO2` [Ex. 66, (1^2S,1^4S)—N-(isopropylsulfonyl)-1^1-((5-methoxy-7-methyl-1H-indol-4-yl)methyl)-3,9-dioxa-1(2,4)-piperidina-2(1,2)-benzenacyclononaphane-2^4-carboxamide], 411 nM; as for `COc1cc(C)c2[nH]ccc2c1CN1CC[C@H]2C[C@H]1c1ccc(C(=O)NS(=O)(=O)C3(C)CC3)cc1OCCCCCO2` [Ex. 67, (1^2S,1^4S)-1^1-((5-methoxy-7-methyl-1H-indol-4-yl)methyl)-N-((1-methylcyclopropyl)sulfonyl)-3,9-dioxa-1(2,4)-piperidina-2(1,2)-benzenacyclononaphane-2^4-carboxamide], 330 nM. Take `COc1cc(C)c2[nH]ccc2c1CN1CC[C@H]2C[C@H]1c1ccc(C(=O)NS(C)(=O)=O)cc1/C=C\CCCCCO2` [Ex. 68, (1^2S,1^4S,Z)-1^1-((5-methoxy-7-methyl-1H-indol-4-yl)methyl) —N-(methylsulfonyl)-10-oxa-1(2,4)-piperidina-2(1,2)-benzenacyclodecaphan-3-ene-24-carboxamide]: the IC50 at CVF-Bb complex turned out to be 674 nM. Turning to `COc1cc(C)c2[nH]ccc2c1CN1CC[C@H]2C[C@H]1c1ccc(C(=O)NS(C)(=O)=O)cc1/C=C/CCCCCO2` [Ex. 69, (1^2S,1^4S,E)-1^1-((5-methoxy-7-methyl-1H-indol-4-yl)methyl)-N-(methylsulfonyl)-10-oxa-1(2,4)-piperidina-2(1,2)-benzenacyclodecaphan-3-ene-2^4-carboxamide], the concentration for half-maximal inhibition (IC50) on CVF-Bb complex was 581 nM. Same read-out and setting: as for `COc1cc(C)c2[nH]ccc2c1CN1CC[C@H]2C[C@H]1c1ccc(C(=O)NS(=O)(=O)c3ccccc3)cc1OCCCCCO2` [Ex. 70, (1^2S,1^4S)-1^1-((5-methoxy-7-methyl-1H-indol-4-yl)methyl)-N-(phenylsulfonyl)-3,9-dioxa-1(2,4)-piperidina-2(1,2)-benzenacyclononaphane-2^4-carboxamide], the figure is 543 nM; as for `COc1cc(C)c2[nH]ccc2c1CN1CC[C@H]2C[C@H]1c1ccc(C(=O)NS(C)(=O)=O)cc1CCCCCCCO2` [Ex. 71, (1^2S,1^4S)-1^1-((5-methoxy-7-methyl-1H-indol-4-yl)methyl)-N-(methylsulfonyl)-10-oxa-1(2,4)-piperidina-2(1,2)-benzenacyclodecaphane-2^4-carboxamide], 258 nM; as for `COc1cc(C)c2[nH]ccc2c1CN1CC[C@H]2C[C@H]1c1ccc(C(=O)O)cc1CCCCCCCCCO2` [Ex. 72, (1^2S,1^4S)-1^1-((5-methoxy-7-methyl-1H-indol-4-yl)methyl)-12-oxa-1(2,4)-piperidina-2(1,2)-benzenacyclododecaphane-2^4-carboxylic acid], 129 nM.

Consider `COc1cc(C)c2[nH]ccc2c1CN1CC[C@H]2C[C@H]1c1ccc(C(=O)O)cc1/C=C/CCCCCCCO2` [Ex. 73, (1^2S,1^4S,Z)-1^1-((5-methoxy-7-methyl-1H-indol-4-yl)methyl)-12-oxa-1(2,4)-piperidina-2(1,2)-benzenacyclododecaphan-3-ene-2^4-carboxylic acid], for which the IC50 on CVF-Bb complex was found to be 271 nM.

For the molecule `COc1cc(C)c2[nH]ccc2c1CN1CC[C@H]2C[C@H]1c1ccc(-c3nnn[nH]3)cc1OCCCCCCO2` [Ex. 74, (1^2S,1^4S)-1^1-((5-methoxy-7-methyl-1H-indol-4-yl)methyl)-2^4-(1H-tetrazol-5-yl)-3,10-dioxa-1(2,4)-piperidina-2(1,2)-benzenacyclodecaphane], the IC50 at CVF-Bb complex stood at 1250 nM. Consider `COc1cc(C)c2[nH]ccc2c1CN1CC[C@H]2C[C@H]1c1ccc(C(=O)O)c3ccc(cc13)OC/C=C\CO2` [Ex. 75, (1^2S,1^4S,Z)-1′-((5-methoxy-7-methyl-1H-indol-4-yl)methyl)-3,8-dioxa-1(2,4)-piperidina-2(1,7)-naphthalenacyclooctaphan-5-ene-2^4-carboxylic acid], for which the IC50 at CVF-Bb complex came out at 352 nM. Same read-out and setting: as for `COc1cc(C)c2[nH]ccc2c1CN1CC[C@H]2C[C@H]1c1ccc(C(=O)O)c3ccc(cc13)OCC/C=C/CO2` [Ex. 76, (1^2S,1^4S)-1^1-((5-methoxy-7-methyl-1H-indol-4-yl)methyl)-3,9-dioxa-1(2,4)-piperidina-2(1,7)-naphthalenacyclononaphane-2^4-carboxylic acid], the figure is 251 nM; as for `COc1cc(C)c2[nH]ccc2c1CN1CC[C@@H]2CCCCCCCOc3cc(C(=O)O)ccc3[C@@H]1C2` [Ex. 77, (1^2S,1^4S)-1^1-((5-methoxy-7-methyl-1H-indol-4-yl)methyl)-3-oxa-1(2,4)-piperidina-2(1,2)-benzenacyclodecaphane-2^4-carboxylic acid], 85.6 nM; as for `COc1cc(C)c2[nH]ccc2c1CN1CC[C@H]2CCCCCCCOc3cc(C(=O)O)ccc3[C@@H]1C2` [Ex. 78, (1^2S,1^4R)-1^1-((5-methoxy-7-methyl-1H-indol-4-yl)methyl)-3-oxa-1(2,4)-piperidina-2(1,2)-benzenacyclodecaphane-2^4-carboxylic acid], 731 nM. Regarding `CNS(=O)(=O)c1ccc2c(c1)OCCCCCCO[C@H]1CCN(Cc3c(OC)cc(C)c4[nH]ccc34)[C@H]2C1` [Ex. 79, (1^2S,1^4S)-1^1-((5-methoxy-7-methyl-1H-indol-4-yl)methyl)-N-methyl-3,10-dioxa-1(2,4)-piperidina-2(1,2)-benzenacyclodecaphane-2^4-sulfonamide], the 50% inhibitory concentration (IC50) on CVF-Bb complex was > 10000 nM. On to “(1^2S,1^4S)-N-(ethylsulfonyl)-1^1-((5-methoxy-7- methyl-1H-indol-4-yl)methyl)-3,10-dioxa- 1(2,4)-piperidina-2(1,2)- benzenacyclodecaphane-2^4-carboxamide [Ex. 45]”, for which the IC50 on CVF-Bb complex came out at 396 nM. Same read-out and setting: the value for “(1^2S,1^4S,E)-1^1-((5-methoxy-7-methyl-1H-indol-4-yl)methyl)-3,10-dioxa-1(2,4)-piperidina-2(1,7)-naphthalenacyclodecaphan-7-ene-2^4-carboxylic acid [Ex. 53]” was > 10000 nM.

As usually defined, the IC50 is the concentration at which inhibition is half-maximal.
